Measured values as given in patent publication US20210121527A1, “METHODS OF TREATING MINIMAL RESIDUAL CANCER” (ICAHN SCHOOL OF MEDICINE AT MOUNT SINAI, priority 2018, published 2021).

How the values were obtained:
PIK3CG = molecular target: T1, PIK3CG (Homo sapiens, UniProt P48736); test: DiscoveRx scanMAX kinase profiling; type: binding; conditions: read-out: Direct inhibitory activity on PIK3CG (KINOMEscan)
T1 construct: purchased DiscoverX (San Diego, Calif.)
Experimental: (§1) Biochemical assays: Recombinant human EIF2AK3 (PERK) catalytic domain (amino acids 536-1116; Cat # PV5107), GFP-eIF2a (Cat # PV4809) substrate, and Terbium-labelled phospho-eIF2a antibody (Cat # PR8956B) were purchased from Invitrogen (Carlsbad, Calif.). HIS-SUMO-GCN2 catalytic domain (amino acids 584-1019) was expressed and purified from E. coli. TR-FRET kinase assays were performed in the absence or presence of inhibitors in a reaction buffer consisting of 50 mM HEPES, pH 7.5, 10 mMMgCl2, 1.0 mM EGTA, and 0.01% Brij-35, and 100-200 nM GFP-eIF2a substrate. […] Following the addition of test compound, the reaction was initiated by addition of enzyme and incubated at room temperature for 45 minutes. The reaction was stopped by addition of EDTA to a final concentration of 10 mM and Terbium-labelled phospho-eIF2α antibody was added at a final concentration of 2 nM and incubated for 90 minutes. The resulting fluorescence was monitored in an EnVison® Multilabel reader (PerkinElmer, Waltham, Mass.). TR-FRET ratios and the resulting IC50 values were determined from the fitted inhibition curves. Biochemical specificity profiling was performed at Cerep (Redmond, Wash.) and DiscoverX (San Diego, Calif.).

ERBB2 = molecular target: T2, ERBB2 (Homo sapiens, UniProt P04626); test: DiscoveRx scanMAX kinase profiling; type: binding; conditions: read-out: Direct inhibitory activity on ERBB2 (KINOMEscan)
T2 construct: purchased DiscoverX (San Diego, Calif.) scanMAX
T2 sequence (P04626 23-1255): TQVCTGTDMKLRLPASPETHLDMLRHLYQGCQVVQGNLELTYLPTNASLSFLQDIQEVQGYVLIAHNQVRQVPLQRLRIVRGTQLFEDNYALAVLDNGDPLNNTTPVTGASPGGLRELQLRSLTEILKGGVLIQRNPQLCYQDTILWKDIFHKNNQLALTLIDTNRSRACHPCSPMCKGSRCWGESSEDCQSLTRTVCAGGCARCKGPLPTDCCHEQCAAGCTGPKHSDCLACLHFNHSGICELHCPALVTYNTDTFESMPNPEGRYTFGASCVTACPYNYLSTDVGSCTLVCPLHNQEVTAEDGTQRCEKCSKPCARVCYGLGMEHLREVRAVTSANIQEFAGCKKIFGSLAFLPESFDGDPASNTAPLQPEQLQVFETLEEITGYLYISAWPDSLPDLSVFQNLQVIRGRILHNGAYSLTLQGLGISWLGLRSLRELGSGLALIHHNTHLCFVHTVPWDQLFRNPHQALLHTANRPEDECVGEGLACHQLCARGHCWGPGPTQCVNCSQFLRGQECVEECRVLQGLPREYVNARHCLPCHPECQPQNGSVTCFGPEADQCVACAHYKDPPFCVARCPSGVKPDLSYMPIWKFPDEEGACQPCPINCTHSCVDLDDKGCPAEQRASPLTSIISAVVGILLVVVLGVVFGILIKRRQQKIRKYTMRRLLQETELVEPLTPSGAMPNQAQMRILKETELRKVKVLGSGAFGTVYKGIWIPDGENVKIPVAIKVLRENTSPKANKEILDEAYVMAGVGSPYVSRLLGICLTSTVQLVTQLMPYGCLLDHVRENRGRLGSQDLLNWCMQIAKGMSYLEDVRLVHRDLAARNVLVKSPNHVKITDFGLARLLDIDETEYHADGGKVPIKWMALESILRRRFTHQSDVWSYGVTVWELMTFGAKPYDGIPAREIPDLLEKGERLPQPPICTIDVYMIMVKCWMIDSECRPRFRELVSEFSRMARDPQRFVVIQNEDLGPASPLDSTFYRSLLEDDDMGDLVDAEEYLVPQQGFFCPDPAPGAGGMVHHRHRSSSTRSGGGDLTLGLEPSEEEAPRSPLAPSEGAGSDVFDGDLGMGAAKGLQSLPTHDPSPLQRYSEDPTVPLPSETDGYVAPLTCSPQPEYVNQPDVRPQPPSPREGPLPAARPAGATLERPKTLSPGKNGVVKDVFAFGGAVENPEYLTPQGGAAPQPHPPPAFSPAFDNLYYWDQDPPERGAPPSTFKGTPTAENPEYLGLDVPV
Experimental: as §1

ERK4 (MAPK4) = molecular target: T3, ERK4 (MAPK4) (Homo sapiens, UniProt P31152); test: DiscoveRx scanMAX kinase profiling; type: binding; conditions: read-out: Direct inhibitory activity on ERK4 (KINOMEscan)
T3 construct: purchased DiscoverX (San Diego, Calif.) scanMAX
T3 sequence (P31152 whole entry): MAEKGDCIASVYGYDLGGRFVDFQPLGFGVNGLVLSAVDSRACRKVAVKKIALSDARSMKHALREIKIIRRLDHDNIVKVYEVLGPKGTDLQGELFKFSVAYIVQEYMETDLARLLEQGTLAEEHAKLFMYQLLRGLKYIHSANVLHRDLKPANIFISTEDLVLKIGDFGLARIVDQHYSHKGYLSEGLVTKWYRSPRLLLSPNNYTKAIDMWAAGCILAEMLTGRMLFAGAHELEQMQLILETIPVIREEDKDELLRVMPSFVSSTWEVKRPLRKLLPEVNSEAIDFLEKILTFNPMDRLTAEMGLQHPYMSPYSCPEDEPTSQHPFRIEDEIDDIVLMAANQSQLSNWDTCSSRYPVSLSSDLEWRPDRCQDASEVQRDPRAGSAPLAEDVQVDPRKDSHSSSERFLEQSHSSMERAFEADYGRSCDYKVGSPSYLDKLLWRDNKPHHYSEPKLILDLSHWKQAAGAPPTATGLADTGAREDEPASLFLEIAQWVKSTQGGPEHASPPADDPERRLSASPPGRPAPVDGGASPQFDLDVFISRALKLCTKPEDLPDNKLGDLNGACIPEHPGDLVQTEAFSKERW
Experimental: as §1

PIK3C2B = molecular target: T4, PIK3C2B (Homo sapiens, UniProt O00750); test: DiscoveRx scanMAX kinase profiling; type: binding; conditions: read-out: Direct inhibitory activity on PIK3C2B (KINOMEscan)
T4 construct: purchased DiscoverX (San Diego, Calif.)
Experimental: as §1

SRC = molecular target: T5, SRC (Homo sapiens, UniProt P12931); test: DiscoveRx scanMAX kinase profiling; type: binding; conditions: read-out: Direct inhibitory activity on SRC (KINOMEscan)
T5 construct: purchased DiscoverX (San Diego, Calif.) scanMAX
T5 sequence (P12931 whole entry): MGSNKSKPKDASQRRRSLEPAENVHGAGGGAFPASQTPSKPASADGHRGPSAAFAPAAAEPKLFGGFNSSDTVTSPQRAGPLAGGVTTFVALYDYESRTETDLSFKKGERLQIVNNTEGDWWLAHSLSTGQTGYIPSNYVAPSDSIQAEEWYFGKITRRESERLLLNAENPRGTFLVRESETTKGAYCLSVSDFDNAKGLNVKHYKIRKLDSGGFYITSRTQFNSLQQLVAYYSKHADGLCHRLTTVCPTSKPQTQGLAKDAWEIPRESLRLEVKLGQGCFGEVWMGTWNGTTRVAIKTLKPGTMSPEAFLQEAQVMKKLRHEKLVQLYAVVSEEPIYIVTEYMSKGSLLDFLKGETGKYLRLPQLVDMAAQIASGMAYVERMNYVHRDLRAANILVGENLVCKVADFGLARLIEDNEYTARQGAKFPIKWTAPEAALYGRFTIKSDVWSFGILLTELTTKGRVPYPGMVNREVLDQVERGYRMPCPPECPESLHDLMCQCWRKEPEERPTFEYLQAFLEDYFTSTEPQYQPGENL
Experimental: as §1

AKT1 = molecular target: T6, AKT1 (Homo sapiens, UniProt P31749); test: DiscoveRx scanMAX kinase profiling; type: binding; conditions: read-out: Direct inhibitory activity on AKT1 (KINOMEscan)
T6 construct: purchased DiscoverX (San Diego, Calif.) scanMAX
Experimental: as §1

PYK2 (PTK2B) = molecular target: T7, PYK2 (PTK2B) (Homo sapiens, UniProt Q14289); test: DiscoveRx scanMAX kinase profiling; type: binding; conditions: read-out: Direct inhibitory activity on PYK2 (KINOMEscan)
T7 construct: purchased DiscoverX (San Diego, Calif.)
Experimental: as §1

ERK5 (MAPK7) = molecular target: T8, ERK5 (MAPK7) (Homo sapiens, UniProt Q13164); test: DiscoveRx scanMAX kinase profiling; type: binding; conditions: read-out: Direct inhibitory activity on ERK5 (KINOMEscan)
T8 construct: purchased DiscoverX (San Diego, Calif.) scanMAX
T8 sequence (Q13164 whole entry): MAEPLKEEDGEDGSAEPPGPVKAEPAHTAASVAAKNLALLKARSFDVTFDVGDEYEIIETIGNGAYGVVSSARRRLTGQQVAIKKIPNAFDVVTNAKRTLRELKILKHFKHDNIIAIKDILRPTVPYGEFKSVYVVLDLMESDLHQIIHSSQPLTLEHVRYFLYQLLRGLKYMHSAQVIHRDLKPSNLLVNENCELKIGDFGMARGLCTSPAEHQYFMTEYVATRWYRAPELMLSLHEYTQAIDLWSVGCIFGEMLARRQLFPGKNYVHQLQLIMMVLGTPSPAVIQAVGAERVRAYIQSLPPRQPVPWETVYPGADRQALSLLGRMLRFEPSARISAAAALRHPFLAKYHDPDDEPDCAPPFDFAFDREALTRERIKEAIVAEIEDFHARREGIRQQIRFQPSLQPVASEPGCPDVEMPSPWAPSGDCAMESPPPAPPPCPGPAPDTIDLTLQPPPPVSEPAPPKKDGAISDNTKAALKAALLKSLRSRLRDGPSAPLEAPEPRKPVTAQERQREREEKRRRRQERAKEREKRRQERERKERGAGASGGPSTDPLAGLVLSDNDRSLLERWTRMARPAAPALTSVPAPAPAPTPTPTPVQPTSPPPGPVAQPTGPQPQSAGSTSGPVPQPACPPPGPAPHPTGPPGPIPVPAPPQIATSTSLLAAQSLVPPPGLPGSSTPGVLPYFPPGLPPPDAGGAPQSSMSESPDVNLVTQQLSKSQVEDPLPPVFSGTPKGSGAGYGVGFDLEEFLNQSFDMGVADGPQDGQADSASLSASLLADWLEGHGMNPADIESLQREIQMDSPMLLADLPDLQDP
Experimental: as §1

EIF2AK1 = molecular target: T9, EIF2AK1 (Homo sapiens, UniProt Q9BQI3); test: DiscoveRx scanMAX kinase profiling; type: binding; conditions: read-out: Inhibition of EIF2AK1 (KINOMEscan)
T9 construct: purchased DiscoverX (San Diego, Calif.) scanMAX
T9 sequence (Q9BQI3 whole entry): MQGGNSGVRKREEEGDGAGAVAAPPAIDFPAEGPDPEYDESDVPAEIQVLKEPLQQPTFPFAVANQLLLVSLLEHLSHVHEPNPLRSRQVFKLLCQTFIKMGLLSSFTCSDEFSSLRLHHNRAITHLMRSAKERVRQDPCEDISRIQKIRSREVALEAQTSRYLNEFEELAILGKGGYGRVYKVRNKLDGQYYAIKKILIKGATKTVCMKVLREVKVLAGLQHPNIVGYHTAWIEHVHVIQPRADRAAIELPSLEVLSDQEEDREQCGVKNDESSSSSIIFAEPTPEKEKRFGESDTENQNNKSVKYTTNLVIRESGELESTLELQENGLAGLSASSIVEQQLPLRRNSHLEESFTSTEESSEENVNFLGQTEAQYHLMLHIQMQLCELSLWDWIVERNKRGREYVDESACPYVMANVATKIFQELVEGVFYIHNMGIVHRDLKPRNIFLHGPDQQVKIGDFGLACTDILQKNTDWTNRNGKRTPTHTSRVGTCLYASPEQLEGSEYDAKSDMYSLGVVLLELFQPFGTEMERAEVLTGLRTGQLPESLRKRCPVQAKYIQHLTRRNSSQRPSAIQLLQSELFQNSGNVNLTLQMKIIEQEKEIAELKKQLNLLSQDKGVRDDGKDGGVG
Experimental: as §1

MMTV-HER2 mammary glands = test: Mammary gland whole mount and histology of early lesions in MMTV-HER2 mice; type: in vivo, mouse; conditions: 50 mpk, two weeks
Experimental: (§2) Mice, tumor growth, and tissue processing: The FVB/N-Tg (MMTVneu) mouse strain was obtained from Jackson Laboratories (Sacramento, Calif.). […] Before being used in any experiment, females underwent one round of pregnancy and at least two weeks of no lactation after weaning. Females between 24-32 weeks of age were injected intraperitoneally with vehicle (90% corn oil, 10% ethanol) or LY4 (50 mpk) daily, for two weeks. For the combination treatment, females 24-32 weeks of age were treated daily by oral gavage with Abemaciclib (50 mpk) for 4 weeks before starting the treatment described earlier with LY4. Tumor volumes were measured using the formula (Dxd^2)/2, where D is the longest and d is the shortest diameter. For CTC count, animals were anesthetized and whole blood was extracted by cardiac puncture. Mammary glands, lungs, and tumors were collected and fixed in 10% buffered formalin overnight before paraffin embedding. The bone marrow from the two lower limbs was flushed with a 26 G needle and further processed by Ficoll density gradient centrifugation. For CTC as well as for DTC detection in bone marrow, tissues were depleted of mature hematopoietic cells by anti-mouse antibody-labeled magnetic bead separation (Miltenyi Biotec, San Diego, Calif.) before fixation in formalin for 20 minutes at 4° C.
Mammary gland whole mount staining. Mammary glands fixed in 10% buffered formalin were incubated in Carmine Alum stain (Carmine 0.2%, Aluminum potassium sulfate 0.5%) (Sigma, St. Louis, Mo.) for 2 days. Then, they were dehydrated and transferred to methyl salicylate solution before imaging using a stereomicroscope.
The scoring for P-HER2 levels is explained in FIG. 10A. For the scoring of CK8/18 and SMA in mammary gland ducts, 20 low magnification fields were evaluated per animal for the expression of CK8/18 as negative (0), low (1), or high (2) and the same for SMA and the sum of the two scores was considered as the final score (from 0 to 4).

[1] = test system: HER2^+ metastases and DCCs; test: Sequential Abemaciclib then LY4 treatment of MMTV-HER2 mice; type: in vivo, mouse; conditions: Abemaciclib 50 mpk 4 weeks; LY4 50 mpk
Experimental: as §2

T1 sequence (P48736 whole entry): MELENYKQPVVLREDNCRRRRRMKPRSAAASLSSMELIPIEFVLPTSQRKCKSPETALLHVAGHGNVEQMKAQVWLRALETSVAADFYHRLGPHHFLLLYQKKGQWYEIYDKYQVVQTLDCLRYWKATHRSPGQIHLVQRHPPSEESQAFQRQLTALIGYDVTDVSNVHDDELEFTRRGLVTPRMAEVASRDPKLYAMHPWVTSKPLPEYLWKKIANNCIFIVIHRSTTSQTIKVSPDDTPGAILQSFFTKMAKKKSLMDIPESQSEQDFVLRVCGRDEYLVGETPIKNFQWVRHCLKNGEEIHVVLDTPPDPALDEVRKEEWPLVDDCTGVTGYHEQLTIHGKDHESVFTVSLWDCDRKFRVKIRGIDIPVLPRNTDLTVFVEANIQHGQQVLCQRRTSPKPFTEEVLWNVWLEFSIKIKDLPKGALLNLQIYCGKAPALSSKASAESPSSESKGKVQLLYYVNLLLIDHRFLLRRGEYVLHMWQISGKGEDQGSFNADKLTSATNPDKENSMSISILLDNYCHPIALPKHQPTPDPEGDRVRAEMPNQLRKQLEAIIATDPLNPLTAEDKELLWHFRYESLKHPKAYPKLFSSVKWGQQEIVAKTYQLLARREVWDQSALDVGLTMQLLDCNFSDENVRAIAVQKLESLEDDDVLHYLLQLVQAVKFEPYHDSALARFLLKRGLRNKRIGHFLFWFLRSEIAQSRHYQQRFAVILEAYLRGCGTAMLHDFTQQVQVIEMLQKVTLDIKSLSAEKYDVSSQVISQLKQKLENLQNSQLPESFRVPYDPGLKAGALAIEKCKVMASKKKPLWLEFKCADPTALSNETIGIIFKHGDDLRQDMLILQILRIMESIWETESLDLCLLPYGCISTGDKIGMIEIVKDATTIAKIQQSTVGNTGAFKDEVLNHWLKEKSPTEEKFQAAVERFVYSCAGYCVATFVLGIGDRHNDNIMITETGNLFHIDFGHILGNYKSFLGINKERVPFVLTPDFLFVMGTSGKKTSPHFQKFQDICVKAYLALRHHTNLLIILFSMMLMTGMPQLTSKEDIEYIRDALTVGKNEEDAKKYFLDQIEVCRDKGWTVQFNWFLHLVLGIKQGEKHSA

Structure (SMILES) | inhibition at 0.2 µM (PIK3CG) | inhibition at 2 µM (PIK3CG) | inhibition at 20 µM (PIK3CG) | inhibition at 0.2 µM (ERBB2) | inhibition at 2 µM (ERBB2) | inhibition at 20 µM (ERBB2) | inhibition at 0.2 µM (ERK4 (MAPK4)) | inhibition at 2 µM (ERK4 (MAPK4)) | inhibition at 20 µM (ERK4 (MAPK4)) | inhibition at 0.2 µM (PIK3C2B) | inhibition at 2 µM (PIK3C2B) | inhibition at 20 µM (PIK3C2B) | inhibition at 0.2 µM (SRC) | inhibition at 2 µM (SRC) | inhibition at 20 µM (SRC) | inhibition at 0.2 µM (AKT1) | inhibition at 2 µM (AKT1) | inhibition at 20 µM (AKT1) | inhibition at 0.2 µM (PYK2 (PTK2B)) | inhibition at 2 µM (PYK2 (PTK2B)) | further results
Cc1cccc(CC(=O)N2CCc3c2ccc(-c2cn(C)c4ncnc(N)c24)c3F)n1 [GSK2656157, reference compound] | 36% | 47% | 50% | 57% | 64% | 97% | 0% | 35% | 0% | 0% | 9% | 22% | 10% | 45% | 69% | 14% | 32% | 0% | 0% | 0% | inhibition at 20 µM (PYK2 (PTK2B)): 3%; inhibition at 0.2 µM (ERK5 (MAPK7)): 4%; inhibition at 2 µM (ERK5 (MAPK7)): 23%; inhibition at 20 µM (ERK5 (MAPK7)): 12%; inhibition at 0.2 µM (EIF2AK1): 8%; inhibition at 2 µM (EIF2AK1): 77%; inhibition at 20 µM (EIF2AK1): 95%
Cc1cc(NC(=O)[C@H](O)c2cc(F)cc(F)c2)ccc1-c1cnc(N)c(C(=O)NC(C)C)c1 [LY4, 2-amino-5-[4-[[(2R)-2-(3,5-difluorophenyl)-2-hydroxy-acetyl]amino]-2-methyl-phenyl]-N-isopropyl-pyridine-3-carboxamide] | 24% | 0% | 26% | 0% | 0% | 0% | 0% | 0% | 0% | 40% | 39% | 94% | 0% | 1% | 11% | 0% | 5% | 0% | 0% | 0% | cytokeratin 8/18 expression in the luminal layer of mammary ducts (MMTV-HER2 mammary glands): increased expression of cytokeratin 8/18 in the luminal layer; number of occluded hyperplasias and DCIS-like lesions (MMTV-HER2 mammary glands): reduced to less than half of that in vehicle-treated animals; hollow lumen mammary gland ducts, share of structures (MMTV-HER2 mammary glands; around 20% in control females): more than 60%; inhibition at 20 µM (PYK2 (PTK2B)): 6%; inhibition at 0.2 µM (ERK5 (MAPK7)): 0%; inhibition at 2 µM (ERK5 (MAPK7)): 0%; inhibition at 20 µM (ERK5 (MAPK7)): 4%; inhibition at 0.2 µM (EIF2AK1): 0%; inhibition at 2 µM (EIF2AK1): 0%; inhibition at 20 µM (EIF2AK1): 35%; GADD34 in primary tumor sections [1]: eliminated the expression of GADD34
